The text below walks through data of PMC4639830, “Inhibition of DYRK1A and GSK3B induces human β-cell proliferation” (Nature Communications, 2015).

What all share (experiment): Kinase profiling
Assay type in all cases: biochemical

One assay deals with T1, BTK (Homo sapiens, UniProt Q06187).
T1 construct: purchased Ambit KINOMEscan
Particulars: Conc 1000 nM; read-out: Percent inhibition, BTK. From the text: (§1) ; Fig. 5a; Supplementary Table 1). We focused on Dyrk1a because other kinases inhibited by aminopyrazine compounds were not highly expressed in β-cells and because Dyrk1a was known to inhibit the NFAT pathway that was previously implicated in β-cell proliferation. We used molecular modelling to dock the aminopyrazine compounds into the published structure of Dyrk1a (protein databank accession code 2vx3.pdb; Fig. 5b).

The next assay deals with T2, CSK (Homo sapiens, UniProt P41240).
T2 construct: purchased Ambit KINOMEscan
Particulars: Conc 1000 nM; read-out: Percent inhibition, CSK.
From the text: as §1

The target of another assay is T3, EphA3 (Homo sapiens, UniProt P29320).
T3 construct: purchased Ambit KINOMEscan
Particulars: Conc 1000 nM; read-out: Percent inhibition, EphA3.
From the text: as §1

Another assay deals with T4, FMS (CSF1R) (Homo sapiens, UniProt P07333).
T4 construct: purchased Ambit KINOMEscan
The note with it: Conc 1000 nM; read-out: Percent inhibition, FMS (CSF1R).
From the text: as §1

In the next assay the target is T5, Flt-3 (Homo sapiens, UniProt P36888).
T5 construct: purchased Ambit KINOMEscan
T5 sequence (P36888 27-993): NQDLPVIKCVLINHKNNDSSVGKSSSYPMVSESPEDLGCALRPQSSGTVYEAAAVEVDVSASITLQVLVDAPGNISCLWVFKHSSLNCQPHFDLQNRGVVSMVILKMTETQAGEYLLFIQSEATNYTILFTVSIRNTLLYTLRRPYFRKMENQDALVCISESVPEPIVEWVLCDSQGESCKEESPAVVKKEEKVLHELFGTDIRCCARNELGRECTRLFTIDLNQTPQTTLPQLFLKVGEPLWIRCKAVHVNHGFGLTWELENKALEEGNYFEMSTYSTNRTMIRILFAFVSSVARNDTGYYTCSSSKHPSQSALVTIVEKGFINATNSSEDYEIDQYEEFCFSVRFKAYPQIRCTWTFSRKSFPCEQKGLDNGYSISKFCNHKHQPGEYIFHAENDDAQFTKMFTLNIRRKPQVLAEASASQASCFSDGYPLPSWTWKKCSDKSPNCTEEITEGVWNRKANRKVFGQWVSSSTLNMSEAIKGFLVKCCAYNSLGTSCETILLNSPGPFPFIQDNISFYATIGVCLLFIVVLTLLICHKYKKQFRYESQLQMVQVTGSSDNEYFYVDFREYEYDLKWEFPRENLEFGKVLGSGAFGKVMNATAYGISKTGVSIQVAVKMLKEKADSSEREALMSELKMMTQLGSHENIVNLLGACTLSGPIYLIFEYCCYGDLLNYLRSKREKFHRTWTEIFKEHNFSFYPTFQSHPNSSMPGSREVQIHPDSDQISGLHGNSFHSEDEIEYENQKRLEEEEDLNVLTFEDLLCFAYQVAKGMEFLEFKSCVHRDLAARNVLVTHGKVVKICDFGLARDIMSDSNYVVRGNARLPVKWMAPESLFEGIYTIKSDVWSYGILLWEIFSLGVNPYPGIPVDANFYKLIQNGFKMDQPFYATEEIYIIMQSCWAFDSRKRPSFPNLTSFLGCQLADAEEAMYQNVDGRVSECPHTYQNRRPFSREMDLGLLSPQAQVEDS
The note with it: read-out: Percent inhibition, Flt-3; for inhibition at 1 µM: Conc 1000 nM.
From the text: as §1

Another assay concerns the target T6, IKKb (Homo sapiens, UniProt O14920).
T6 construct: purchased Ambit KINOMEscan
The note with it: Conc 1000 nM; read-out: Percent inhibition, IKKb.
From the text: as §1

A further assay addresses T7, InsR (Homo sapiens, UniProt P06213).
T7 construct: purchased Ambit KINOMEscan
The note with it: Conc 1000 nM; read-out: Percent inhibition, InsR.
From the text: as §1

The target of the next assay is T8, JNK2 (Homo sapiens, UniProt P45984).
T8 construct: purchased Ambit KINOMEscan
The note with it: Conc 1000 nM; read-out: Percent inhibition, JNK2.
From the text: as §1

A further assay concerns the target T9, KDR (VEGFR2, FLK1) (Homo sapiens, UniProt P35968).
T9 construct: purchased Ambit KINOMEscan
The note with it: read-out: Percent inhibition, KDR (VEGFR2, FLK1); for inhibition at 1 µM: Conc 1000 nM.
From the text: as §1

A further assay deals with T10, LCK (Homo sapiens, UniProt P06239).
T10 construct: purchased Ambit (KINOMEscan)
The note with it: Conc 1000 nM; read-out: Percent inhibition, LCK.
From the text: as §1

A further assay concerns the target T11, MET (Homo sapiens, UniProt P08581).
T11 construct: purchased Ambit (KINOMEscan)
Particulars: Conc 1000 nM; read-out: Percent inhibition, MET.
From the text: as §1

In a further assay the target is T12, NEK2 (Homo sapiens, UniProt P51955).
T12 construct: purchased Ambit (KINOMEscan)
T12 sequence (P51955 whole entry): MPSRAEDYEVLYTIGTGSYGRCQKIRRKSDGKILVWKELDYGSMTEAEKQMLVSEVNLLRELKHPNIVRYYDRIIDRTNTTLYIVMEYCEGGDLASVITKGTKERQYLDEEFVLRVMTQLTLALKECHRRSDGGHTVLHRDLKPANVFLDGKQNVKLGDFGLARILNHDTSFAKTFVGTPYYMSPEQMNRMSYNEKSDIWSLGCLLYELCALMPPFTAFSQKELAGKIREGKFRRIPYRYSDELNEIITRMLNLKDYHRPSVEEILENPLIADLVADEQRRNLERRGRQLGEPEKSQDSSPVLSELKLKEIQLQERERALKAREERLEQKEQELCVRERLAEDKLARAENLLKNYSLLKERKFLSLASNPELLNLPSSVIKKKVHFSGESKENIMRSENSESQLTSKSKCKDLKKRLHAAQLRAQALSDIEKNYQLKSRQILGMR
Particulars: Conc 1000 nM; read-out: Percent inhibition, NEK2.
From the text: as §1

The target of the next assay is T13, PDGFRb (Homo sapiens, UniProt P09619).
T13 construct: purchased Ambit (KINOMEscan)
T13 sequence (P09619 33-1106): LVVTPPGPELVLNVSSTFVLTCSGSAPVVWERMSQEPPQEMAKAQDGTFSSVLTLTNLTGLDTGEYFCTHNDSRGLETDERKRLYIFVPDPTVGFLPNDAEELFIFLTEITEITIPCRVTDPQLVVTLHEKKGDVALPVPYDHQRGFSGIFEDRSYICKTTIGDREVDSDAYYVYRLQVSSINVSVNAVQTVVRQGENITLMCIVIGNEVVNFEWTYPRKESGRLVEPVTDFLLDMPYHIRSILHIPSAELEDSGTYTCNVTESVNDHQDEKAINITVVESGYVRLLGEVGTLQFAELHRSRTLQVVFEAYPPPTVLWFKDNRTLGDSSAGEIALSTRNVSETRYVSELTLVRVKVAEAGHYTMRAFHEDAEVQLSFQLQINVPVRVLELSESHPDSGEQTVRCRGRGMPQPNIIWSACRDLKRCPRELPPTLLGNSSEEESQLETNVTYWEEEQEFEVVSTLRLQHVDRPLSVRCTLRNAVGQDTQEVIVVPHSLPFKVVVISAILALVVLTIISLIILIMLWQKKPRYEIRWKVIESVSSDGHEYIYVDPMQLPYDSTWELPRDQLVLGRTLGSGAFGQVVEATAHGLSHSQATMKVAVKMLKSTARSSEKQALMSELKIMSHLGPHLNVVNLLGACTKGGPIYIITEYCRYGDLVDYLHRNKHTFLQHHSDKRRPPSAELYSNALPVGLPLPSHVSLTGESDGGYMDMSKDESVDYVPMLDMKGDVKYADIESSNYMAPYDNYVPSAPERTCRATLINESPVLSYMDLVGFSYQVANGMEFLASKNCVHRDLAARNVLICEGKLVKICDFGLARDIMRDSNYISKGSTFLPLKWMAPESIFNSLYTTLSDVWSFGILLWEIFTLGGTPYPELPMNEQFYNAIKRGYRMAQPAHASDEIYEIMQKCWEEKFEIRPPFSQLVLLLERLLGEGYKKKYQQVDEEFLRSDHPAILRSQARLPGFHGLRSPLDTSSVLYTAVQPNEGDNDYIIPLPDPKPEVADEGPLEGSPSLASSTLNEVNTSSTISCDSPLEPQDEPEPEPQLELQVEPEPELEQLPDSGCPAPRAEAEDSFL
The note with it: read-out: Percent inhibition, PDGFRb; for inhibition at 1 µM: Conc 1000 nM.
From the text: as §1

Another assay concerns the target T14, PLK1 (Homo sapiens, UniProt P53350).
T14 construct: purchased Ambit (KINOMEscan)
Particulars: Conc 1000 nM; read-out: Percent inhibition, PLK1.
From the text: as §1

The target of a further assay is T15, RET (Homo sapiens, UniProt P07949).
T15 construct: purchased Ambit (KINOMEscan)
T15 sequence (P07949 29-1114): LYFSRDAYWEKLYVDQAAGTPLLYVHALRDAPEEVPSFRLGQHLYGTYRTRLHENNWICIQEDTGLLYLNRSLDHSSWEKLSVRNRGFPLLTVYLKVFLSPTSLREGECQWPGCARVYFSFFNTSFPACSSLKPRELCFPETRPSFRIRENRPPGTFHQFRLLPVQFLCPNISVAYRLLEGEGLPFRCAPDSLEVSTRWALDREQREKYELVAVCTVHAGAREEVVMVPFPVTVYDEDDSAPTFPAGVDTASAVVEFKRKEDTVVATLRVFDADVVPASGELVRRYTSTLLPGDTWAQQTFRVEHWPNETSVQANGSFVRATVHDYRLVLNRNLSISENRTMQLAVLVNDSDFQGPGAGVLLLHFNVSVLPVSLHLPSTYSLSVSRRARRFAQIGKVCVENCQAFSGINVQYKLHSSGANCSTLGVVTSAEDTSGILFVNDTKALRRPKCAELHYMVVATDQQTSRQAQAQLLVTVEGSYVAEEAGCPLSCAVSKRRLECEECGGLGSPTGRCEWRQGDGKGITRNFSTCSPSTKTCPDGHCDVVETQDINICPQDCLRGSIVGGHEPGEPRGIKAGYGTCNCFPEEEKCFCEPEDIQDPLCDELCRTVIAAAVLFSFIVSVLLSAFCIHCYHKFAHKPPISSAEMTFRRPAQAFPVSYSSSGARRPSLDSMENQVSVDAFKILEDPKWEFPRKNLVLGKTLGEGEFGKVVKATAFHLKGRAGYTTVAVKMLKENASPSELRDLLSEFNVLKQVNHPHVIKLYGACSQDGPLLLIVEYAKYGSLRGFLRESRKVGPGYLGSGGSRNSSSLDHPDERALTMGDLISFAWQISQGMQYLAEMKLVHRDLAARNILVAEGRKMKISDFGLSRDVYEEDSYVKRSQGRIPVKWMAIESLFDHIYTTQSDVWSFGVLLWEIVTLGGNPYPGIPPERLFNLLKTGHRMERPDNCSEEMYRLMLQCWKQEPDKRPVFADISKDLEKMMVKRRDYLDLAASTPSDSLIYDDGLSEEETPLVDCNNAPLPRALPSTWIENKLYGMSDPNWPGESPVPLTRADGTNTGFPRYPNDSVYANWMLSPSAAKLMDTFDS
The note with it: read-out: Percent inhibition, RET; for inhibition at 1 µM: Conc 1000 nM.
From the text: as §1

A further assay addresses T16, SYK (Homo sapiens, UniProt P43405).
T16 construct: purchased Ambit (KINOMEscan)
Particulars: read-out: Percent inhibition, SYK; for inhibition at 1 µM: Conc 1000 nM.
From the text: as §1

The target of a further assay is T17, TRKA (NTRK1) (Homo sapiens, UniProt P04629).
T17 construct: purchased Ambit (KINOMEscan)
T17 sequence (P04629 33-796): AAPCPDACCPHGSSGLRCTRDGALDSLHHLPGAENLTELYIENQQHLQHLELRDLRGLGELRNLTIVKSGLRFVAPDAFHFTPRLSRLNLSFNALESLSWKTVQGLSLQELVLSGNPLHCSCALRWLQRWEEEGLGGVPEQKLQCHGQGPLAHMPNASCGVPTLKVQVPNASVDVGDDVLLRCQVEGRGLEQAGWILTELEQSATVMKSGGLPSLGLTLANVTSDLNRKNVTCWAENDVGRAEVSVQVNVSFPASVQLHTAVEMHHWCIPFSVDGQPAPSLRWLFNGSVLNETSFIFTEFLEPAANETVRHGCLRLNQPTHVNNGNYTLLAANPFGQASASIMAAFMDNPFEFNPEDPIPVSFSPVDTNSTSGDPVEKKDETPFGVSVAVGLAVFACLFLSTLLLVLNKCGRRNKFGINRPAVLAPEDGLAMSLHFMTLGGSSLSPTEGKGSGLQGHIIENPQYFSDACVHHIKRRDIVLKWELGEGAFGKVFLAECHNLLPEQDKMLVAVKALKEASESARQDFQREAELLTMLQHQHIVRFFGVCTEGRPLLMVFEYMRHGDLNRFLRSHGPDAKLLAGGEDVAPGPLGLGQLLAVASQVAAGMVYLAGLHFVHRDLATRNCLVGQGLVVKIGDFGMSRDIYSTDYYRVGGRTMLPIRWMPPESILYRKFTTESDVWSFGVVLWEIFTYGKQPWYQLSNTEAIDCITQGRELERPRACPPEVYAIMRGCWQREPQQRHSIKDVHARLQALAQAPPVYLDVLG
Particulars: read-out: Percent inhibition, TRKA (NTRK1); for inhibition at 1 µM: Conc 1000 nM.
From the text: as §1

The target in another assay is T18, TYRO3 (Homo sapiens, UniProt Q06418).
T18 construct: purchased Ambit (KINOMEscan)
Particulars: Conc 1000 nM; read-out: Percent inhibition, TYRO3.
From the text: as §1

A further assay addresses T19, p38alpha (MAPK14) (Homo sapiens, UniProt Q16539).
T19 construct: purchased Ambit (KINOMEscan)
The note with it: Conc 1000 nM; read-out: Percent inhibition, p38alpha (MAPK14).
From the text: as §1

Another assay concerns the target T20, p38delta (MAPK13) (Homo sapiens, UniProt O15264).
T20 construct: purchased Ambit (KINOMEscan)
Particulars: Conc 1000 nM; read-out: Percent inhibition, p38delta (MAPK13).
From the text: as §1

T9 sequence (P35968 20-1356): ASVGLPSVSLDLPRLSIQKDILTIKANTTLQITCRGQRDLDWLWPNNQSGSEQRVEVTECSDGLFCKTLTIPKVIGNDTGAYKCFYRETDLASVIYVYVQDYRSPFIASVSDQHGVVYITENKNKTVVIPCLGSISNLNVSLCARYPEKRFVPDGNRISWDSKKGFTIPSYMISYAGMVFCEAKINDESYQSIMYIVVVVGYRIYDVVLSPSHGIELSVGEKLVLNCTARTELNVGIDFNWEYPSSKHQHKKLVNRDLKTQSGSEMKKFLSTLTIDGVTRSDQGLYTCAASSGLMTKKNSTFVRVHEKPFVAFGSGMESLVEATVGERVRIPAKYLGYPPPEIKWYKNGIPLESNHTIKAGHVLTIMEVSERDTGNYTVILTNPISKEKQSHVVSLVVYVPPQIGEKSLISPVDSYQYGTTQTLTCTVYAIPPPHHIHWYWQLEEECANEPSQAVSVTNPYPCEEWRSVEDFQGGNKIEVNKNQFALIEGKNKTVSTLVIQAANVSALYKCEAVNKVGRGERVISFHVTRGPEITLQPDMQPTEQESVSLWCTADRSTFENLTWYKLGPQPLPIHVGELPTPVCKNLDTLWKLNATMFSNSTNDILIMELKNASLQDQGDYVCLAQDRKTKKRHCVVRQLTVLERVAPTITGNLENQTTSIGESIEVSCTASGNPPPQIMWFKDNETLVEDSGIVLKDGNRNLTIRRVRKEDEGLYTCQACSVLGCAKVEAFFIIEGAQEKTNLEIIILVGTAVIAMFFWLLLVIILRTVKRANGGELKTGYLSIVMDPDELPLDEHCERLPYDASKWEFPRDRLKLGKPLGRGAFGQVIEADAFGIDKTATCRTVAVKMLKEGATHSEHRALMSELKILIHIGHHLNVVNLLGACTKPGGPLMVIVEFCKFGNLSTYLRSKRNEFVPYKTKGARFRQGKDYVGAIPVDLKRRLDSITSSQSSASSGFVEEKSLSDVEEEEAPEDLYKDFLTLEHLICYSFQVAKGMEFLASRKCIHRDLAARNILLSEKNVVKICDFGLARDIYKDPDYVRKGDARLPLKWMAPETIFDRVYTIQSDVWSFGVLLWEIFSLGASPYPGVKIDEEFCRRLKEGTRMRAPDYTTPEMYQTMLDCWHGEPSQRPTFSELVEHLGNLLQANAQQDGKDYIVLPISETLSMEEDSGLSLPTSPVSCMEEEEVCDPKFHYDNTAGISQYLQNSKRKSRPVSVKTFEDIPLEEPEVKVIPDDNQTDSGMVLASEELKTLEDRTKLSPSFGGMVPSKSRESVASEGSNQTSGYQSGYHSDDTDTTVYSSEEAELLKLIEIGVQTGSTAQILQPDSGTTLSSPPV
T20 sequence (O15264 whole entry): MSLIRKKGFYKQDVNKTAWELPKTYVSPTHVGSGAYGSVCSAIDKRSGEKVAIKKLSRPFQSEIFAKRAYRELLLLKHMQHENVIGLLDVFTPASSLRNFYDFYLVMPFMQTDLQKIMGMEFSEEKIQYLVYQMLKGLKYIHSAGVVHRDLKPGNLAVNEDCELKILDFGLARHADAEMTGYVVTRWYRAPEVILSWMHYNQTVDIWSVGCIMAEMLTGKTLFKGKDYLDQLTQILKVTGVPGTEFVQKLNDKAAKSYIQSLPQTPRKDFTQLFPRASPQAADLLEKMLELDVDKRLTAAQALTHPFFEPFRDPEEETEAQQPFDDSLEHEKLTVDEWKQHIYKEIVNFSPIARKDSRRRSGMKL

On to `CC(C)Oc1ccc(F)c(-c2cnc(N)c(C(=O)Nc3cnccc3N3CCC[C@@H](C(=O)O)C3)n2)c1` [GNF4877], for which the inhibition at 1 µM on BTK is 42%; at CSK, 54%; at EphA3, 63%; on FMS (CSF1R) it was 72%; on Flt-3, 86%; on IKKb, -1%. The inhibition at 1 µM came to 51% at InsR; 51% at JNK2; 101% at KDR (VEGFR2, FLK1); 43% at LCK; 63% at MET; 0% at NEK2. For the same compound, the inhibition at 1 µM on PDGFRb was 94%; on PLK1 it was 22%; on RET it was 96%; on SYK, 95%; at TRKA (NTRK1), 80%; on TYRO3, 46%. Further, the inhibition at 1 µM at p38alpha (MAPK14) was 6%; at p38delta (MAPK13), 13%. For the same compound, the inhibition at 0.2 µM was 36% on Flt-3 (Conc 200 nM); 6% at KDR (VEGFR2, FLK1) (Conc 200 nM); 0% on PDGFRb (Conc 200 nM); 26% at RET (Conc 200 nM); 89% on SYK (Conc 200 nM); 19% on TRKA (NTRK1) (Conc 200 nM).
Turning to `Nc1ncc(-c2ccccc2)nc1C(=O)Nc1cnccc1N1CCC(C(=O)O)CC1` [GNF7156], the inhibition at 1 µM at BTK turned out to be 83%; at CSK, 29%; on EphA3 it was 82%; at FMS (CSF1R), 78%; on Flt-3, 64%; on IKKb, 8%. The inhibition at 1 µM on InsR amounted to 24%; on JNK2, 68%; on KDR (VEGFR2, FLK1), 102%; on LCK, 31%; at MET, 47%; at NEK2, 3%. For the same compound, the inhibition at 1 µM stood at 94% on PDGFRb; 85% on PLK1; 98% on RET; 93% at SYK; 92% at TRKA (NTRK1); 52% on TYRO3. The inhibition at 1 µM came out at 9% on p38alpha (MAPK14) and 10% on p38delta (MAPK13).
